In patent US11673876B2, “Substituted aminobenzyl heteroaryl compounds as EGFR and/or PI3K inhibitors” (Mekanistic Therapeutics LLC, priority 2020, dated 2023):

What was measured:
[1] = target: DNA-PK (Homo sapiens (Human), UniProt P78527); experiment: Z'-LYTE / Adapta kinase assay, DNA-PK; type: biochemical; conditions: for inhibition at 0.1 µM: read-out: DNA-PK % Inh. @ 100 nM
Description: (§1) The Z′-LYTE® biochemical assay employs a fluorescence-based, coupled-enzyme format and is based on the differential sensitivity of phosphorylated and non-phosphorylated peptides to proteolytic cleavage (FIG. 6). The peptide substrate is labeled with two fluorophores one at each end—that make up a FRET pair. In the primary reaction, the kinase transfers the gamma-phosphate of ATP to a single tyrosine, serine or threonine residue in a synthetic FRET-peptide. In the secondary reaction, a site-specific protease recognizes and cleaves non-phosphorylated FRET-peptides. Phosphorylation of FRET-peptides suppresses cleavage by the Development Reagent. Cleavage disrupts FRET between the donor (i.e., coumarin) and acceptor (i.e., fluorescein) fluorophores on the FRET-peptide, whereas uncleaved, phosphorylated FRET-peptides maintain FRET. A ratiometric method, which calculates the ratio (the Emission Ratio) of donor emission to acceptor emission after excitation of the donor fluorophore at 400 nm, is used to quantitate reaction progress.
(§2) A significant benefit of this ratiometric method for quantitating reaction progress is the elimination of well-to-well variations in FRET-peptide concentration and signal intensities. As a result, the assay yields very high Z′-factor values (>0.7) at a low percent phosphorylation.
(§3) Both cleaved and uncleaved FRET-peptides contribute to the fluorescence signals and therefore to the Emission Ratio. The extent of phosphorylation of the FRET-peptide can be calculated from the Emission Ratio.
(§4) Enzyme: The ADAPTA universal kinase assay is a homogenous, fluorescent based immunoassay for the detection of ADP. In contrast to ATP depletion assays, the ADAPTA assay is extremely sensitive to ADP formation such that a majority of the signal change occurs in the first 10-20% conversion of ATP to ADP. This makes the ADAPTA universal kinase assay ideally suited for use with low activity kinases.
(§5) The principle of the ADAPTA universal kinase assay is outlined below. The assay itself can be divided into two phases: a kinase reaction phase, and an ADP detection phase. In the kinase reaction phase, all components required for the kinase reaction are added to the well, and the reaction is allowed to incubate for 60 minutes.
(§6) Z′-LYTE® Assay Conditions:
(§7) Test Compounds: The Test Compounds are screened in 1% DMSO (final) in the well. For 10 point titrations, 3-fold serial dilutions are conducted from the starting concentration.
(§8) Peptide/Kinase Mixtures: All Peptide/Kinase Mixtures are diluted to a 2× working concentration in the appropriate Kinase Buffer.
(§9) ATP Solution: All ATP Solutions are diluted to a 4× working concentration in Kinase Buffer (50 mM HEPES pH 7.5, 0.01% BRIJ-35, 10 mM MgCl2, 1 mM EGTA). ATP Km apparent is previously determined using a Z′-LYTE® assay.
(§10) Development Reagent Solution: The Development Reagent is diluted in Development Buffer. […]
(§11) 2.5 μL—4× Test Compound or 100 nL 100× plus 2.4 μL kinase buffer. 2. 5 μL—2× Peptide/Kinase Mixture. 3. 2.5 μL—4× ATP Solution. 4. 30-second plate shake. 5. 60-minute Kinase Reaction incubation at room temperature. 6. 5 μL—Development Reagent Solution. 7. 30-second plate shake. 8. 60-minute Development Reaction incubation at room temperature. 9.

[2] = Metabolic stability in mouse liver microsomes; type: in vitro ADME
Experimental: (§12) Working solution: 5 μL of compound and control stock solution (10 mM in dimethyl sulfoxide (DMSO)) were diluted with 495 μL of acetonitrile (ACN) (intermediate solution concentration: 100 μM, 99% ACN)
(§13) NADPH Cofactor Preparation: NADPH powder: β-Nicotinamide adenine dinucleotide phosphate reduced form, tetrasodium salt; NADPH·4Na. The appropriate amount of NADPH powder was weighed and diluted into a 10 mM MgCl2 solution (working solution concentration: 10 unit/mL; final concentration in reaction system: 1 unit/mL)
(§14) Liver Microsomes Preparation: The appropriate concentrations of microsome working solutions were prepared in 100 mM potassium phosphate buffer. Cold (4° C.) acetonitrile (ACN) containing 200 ng/mL tolbutamide and 200 ng/mL labetalol as internal standards (1S) was used as the stop solution
(§15) Assay Procedure: Pre-warm empty ‘Incubation’ plates T60 and NCF60 for 10 minutes. Dilute liver microsomes to 0.56 mg/mL in 100 mM phosphate buffer. Transfer 445 μL microsome working solutions (0.56 mg/mL) into pre-warmed ‘Incubation’ plates T60 and NCF60, Then pre-incubate ‘Incubation’ plates T60 and NCF60 for 10 min at 37° C. with constant shaking. Transfer 54 μL liver microsomes to blank plate, then add 6 μL NAPDH cofactor to blank plate, and then add 180 μL quenching solution to blank plate. Add 5 μL compound working solution (100 μM) into ‘incubation’ plates (T60 and NCF60) containing microsomes and mix 3 times thoroughly.
(§16) For the NCF60 plate, add 50 μL of buffer and mix 3 times thoroughly. Start timing; plate will be incubated at 37° C. for 60 min while shaking. In ‘Quenching’ plate T0, add 180 μL quenching solution and 6 μL NAPDH cofactor. Ensure the plate is chilled to prevent evaporation. For the T60 plate, mix 3 times thoroughly, and immediately remove 54 μL mixture for the 0-min time point to ‘Quenching’ plate. Then add 44 μL NAPDH cofactor to incubation plate (T60). Start timing; plate will be incubated at 37° C. for 60 min while shaking. At 5, 10, 20, 30, and 60 min, add 180 μL quenching solution to ‘Quenching’ plates, mix once, and serially transfer 60 μL sample from T60 plate per time point to ‘Quenching’ plates. For NCF60: mix once, and transfer 60 μL sample from the NCF60 incubation to ‘Quenching’ plate containing quenching solution at the 60-min time point. All sampling plates are shaken for 10 min, then centrifuged at 4000 rpm for 20 minutes at 4° C. Transfer 80 μL supernatant into 240 μL HPLC water, and mix by plate shaker for 10 min. Each bioanalysis plate was sealed and shaken for 10 minutes prior to LC-MS/MS analysis.
(§17) The equation of first order kinetics was used to calculate T½ and CLint(mic) (μL/min/mg). Equation of first order kinetics: […]
(§18) The biological stability of the compounds of the disclosure can be measured by determining its ½ life in the presence microsomes. Presented in Table 5, is the ½ life of selected compounds of the disclosure in the presence of human liver microsomes (HLM) or mouse liver microsomes (MLM) as described above. In Table 5, ½ life is presented as “++++” (value is greater than 60 minutes), “+++” (value is greater than 30 minutes and less than or equal to 60 minutes), “++” (value is greater than 15 minutes and less than or equal to 30 minutes) and “+” (value is 15 minutes or less).

[3] = target: EGFR (Homo sapiens (Human), UniProt P00533); experiment: Z'-LYTE / Adapta kinase assay, EGFR; type: biochemical; conditions: for inhibition at 0.1 µM: read-out: EGFR % Inh. @ 100 nM
Chain of EGFR (P00533 25-1210): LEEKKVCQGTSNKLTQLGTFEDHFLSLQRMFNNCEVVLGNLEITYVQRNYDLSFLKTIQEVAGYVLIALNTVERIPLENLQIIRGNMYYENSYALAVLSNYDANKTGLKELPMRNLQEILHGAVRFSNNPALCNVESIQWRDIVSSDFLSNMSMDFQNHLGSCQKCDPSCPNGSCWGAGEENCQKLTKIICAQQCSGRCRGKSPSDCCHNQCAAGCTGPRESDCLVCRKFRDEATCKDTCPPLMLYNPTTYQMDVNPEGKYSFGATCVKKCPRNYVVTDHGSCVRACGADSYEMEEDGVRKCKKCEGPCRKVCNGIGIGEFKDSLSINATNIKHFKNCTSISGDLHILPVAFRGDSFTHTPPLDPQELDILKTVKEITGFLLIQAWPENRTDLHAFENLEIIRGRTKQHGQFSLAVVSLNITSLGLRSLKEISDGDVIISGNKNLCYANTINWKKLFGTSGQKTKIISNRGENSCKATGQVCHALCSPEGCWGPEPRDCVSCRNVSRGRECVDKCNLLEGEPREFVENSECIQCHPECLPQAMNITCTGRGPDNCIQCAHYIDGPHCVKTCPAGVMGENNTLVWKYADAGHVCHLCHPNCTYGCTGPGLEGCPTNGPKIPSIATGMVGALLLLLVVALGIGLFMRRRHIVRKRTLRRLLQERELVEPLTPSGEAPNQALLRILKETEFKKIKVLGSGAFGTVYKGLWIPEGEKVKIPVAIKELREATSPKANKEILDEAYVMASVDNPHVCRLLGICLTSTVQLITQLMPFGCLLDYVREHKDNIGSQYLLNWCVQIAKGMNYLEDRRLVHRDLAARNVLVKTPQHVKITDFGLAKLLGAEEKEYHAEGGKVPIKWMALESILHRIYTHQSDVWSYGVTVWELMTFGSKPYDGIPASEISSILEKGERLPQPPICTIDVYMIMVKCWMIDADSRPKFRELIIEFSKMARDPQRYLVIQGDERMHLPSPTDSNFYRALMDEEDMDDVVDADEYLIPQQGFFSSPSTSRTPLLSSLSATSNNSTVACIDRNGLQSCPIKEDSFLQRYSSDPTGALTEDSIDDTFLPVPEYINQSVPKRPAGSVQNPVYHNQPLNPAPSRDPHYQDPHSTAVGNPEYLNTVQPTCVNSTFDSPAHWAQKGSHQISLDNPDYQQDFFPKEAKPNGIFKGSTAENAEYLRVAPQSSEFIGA
Description: as §1, §2, §3, §4, §5, §6, §7, §8, §9, §10, §11

[4] = Metabolic stability in human liver microsomes; type: in vitro ADME
Experimental: as §12, §13, §14, §15, §16, §17, §18

[5] = target: PI3Ka (Homo sapiens (Human), UniProt P42336); experiment: Z'-LYTE / Adapta kinase assay, PI3Ka; type: biochemical; conditions: for inhibition at 0.1 µM: read-out: PI3Ka % Inh. @ 100 nM
Chain of PI3Ka (P42336 whole entry): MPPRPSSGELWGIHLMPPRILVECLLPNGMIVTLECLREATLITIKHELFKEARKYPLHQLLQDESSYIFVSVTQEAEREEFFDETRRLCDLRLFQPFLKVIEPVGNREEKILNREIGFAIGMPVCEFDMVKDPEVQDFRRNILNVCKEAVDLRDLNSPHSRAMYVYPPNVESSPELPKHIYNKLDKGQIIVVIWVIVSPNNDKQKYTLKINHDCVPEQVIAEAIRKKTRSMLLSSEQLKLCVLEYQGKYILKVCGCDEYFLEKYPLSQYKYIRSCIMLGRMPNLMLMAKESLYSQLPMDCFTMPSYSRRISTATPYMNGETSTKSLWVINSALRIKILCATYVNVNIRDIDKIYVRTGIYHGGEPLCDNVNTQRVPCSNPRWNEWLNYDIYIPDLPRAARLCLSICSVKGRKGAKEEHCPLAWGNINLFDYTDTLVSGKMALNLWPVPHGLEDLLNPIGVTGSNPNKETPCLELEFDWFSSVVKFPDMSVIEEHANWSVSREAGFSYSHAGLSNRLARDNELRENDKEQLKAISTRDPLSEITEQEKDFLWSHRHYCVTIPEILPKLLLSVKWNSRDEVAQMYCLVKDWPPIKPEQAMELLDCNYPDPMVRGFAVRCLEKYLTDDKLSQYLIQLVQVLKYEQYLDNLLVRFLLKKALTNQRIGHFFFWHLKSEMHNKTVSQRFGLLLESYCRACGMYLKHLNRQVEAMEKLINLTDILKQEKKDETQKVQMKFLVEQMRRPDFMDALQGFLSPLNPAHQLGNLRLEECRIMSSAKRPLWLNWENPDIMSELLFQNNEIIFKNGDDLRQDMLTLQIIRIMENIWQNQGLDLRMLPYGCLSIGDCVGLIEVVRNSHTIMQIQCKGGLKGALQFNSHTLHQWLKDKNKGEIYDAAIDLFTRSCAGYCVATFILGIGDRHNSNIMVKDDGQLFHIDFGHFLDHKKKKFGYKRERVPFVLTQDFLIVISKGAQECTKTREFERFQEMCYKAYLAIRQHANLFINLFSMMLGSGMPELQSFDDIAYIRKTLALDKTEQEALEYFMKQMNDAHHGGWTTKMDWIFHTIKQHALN
Chain of PI3Ka (P27986 whole entry partner): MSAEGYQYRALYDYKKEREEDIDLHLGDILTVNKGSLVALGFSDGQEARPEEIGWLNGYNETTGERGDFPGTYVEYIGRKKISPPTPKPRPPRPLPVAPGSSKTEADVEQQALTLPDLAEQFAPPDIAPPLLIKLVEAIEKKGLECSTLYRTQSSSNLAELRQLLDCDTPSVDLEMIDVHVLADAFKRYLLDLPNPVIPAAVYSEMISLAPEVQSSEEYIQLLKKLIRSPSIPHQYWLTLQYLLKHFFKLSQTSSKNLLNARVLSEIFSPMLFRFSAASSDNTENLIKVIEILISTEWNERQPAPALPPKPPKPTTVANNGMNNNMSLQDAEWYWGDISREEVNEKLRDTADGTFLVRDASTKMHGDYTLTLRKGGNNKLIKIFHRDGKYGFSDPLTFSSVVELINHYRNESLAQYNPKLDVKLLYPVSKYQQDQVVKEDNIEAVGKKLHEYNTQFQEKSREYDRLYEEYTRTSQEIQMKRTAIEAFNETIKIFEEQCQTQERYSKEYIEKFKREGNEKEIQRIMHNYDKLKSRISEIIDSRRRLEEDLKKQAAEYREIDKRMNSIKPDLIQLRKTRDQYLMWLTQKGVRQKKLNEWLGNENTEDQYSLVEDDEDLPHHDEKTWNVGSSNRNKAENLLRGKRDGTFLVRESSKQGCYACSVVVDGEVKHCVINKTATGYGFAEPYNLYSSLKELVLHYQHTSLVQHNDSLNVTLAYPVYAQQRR
Description: as §1, §2, §3, §4, §5, §6, §7, §8, §9, §10, §11

SMILES | inhibition at 0.1 µM [1] | ½ life minutes (MLM) [2] | inhibition at 0.1 µM [3] | ½ life minutes (HLM) [4] | IC50 [1] | PI3Ka IC50 (nM) [5] | inhibition at 0.1 µM [5] | IC50 [3] | IC50 [5]
C[C@@H](Nc1c(C#N)cnc2ccc(-c3cnc(Cl)c(NS(C)(=O)=O)c3)cc12)c1ccc(F)cc1 [Compound 97R, N-[2-chloro-5-[3-cyano-4-[[(1R)-1-(4-fluorophenyl)ethyl]amino]-6-quinolyl]-3-pyridyl]methanesulfonamide] | > 90% | ++++ (value is greater than 60 minutes) | 10 to 80% | ++++ (value is greater than 60 minutes) |  |  |  |  | 
C[C@H](Nc1c(C#N)cnc2ccc(-c3cnc(Cl)c(NS(C)(=O)=O)c3)cc12)c1ccccc1 [Compound 48S, N-(2-chloro-5-(3-cyano-4-((1S-phenylethyl)amino)quinolin-6-yl)pyridin-3-yl)methanesulfonamide] | > 90% | ++++ (value is greater than 60 minutes) | < 10% | ++++ (value is greater than 60 minutes) | < 0.002 µM | ++++ (value is 2 nM or less) | > 90% | > 0.2 µM | 
CC(Nc1ncnc2ccc(-c3cnc(N)nc3)cc12)c1ccc(F)cc1 (stereo not drawn) [Compound 121, 6-(2-aminopyrimidin-5-yl)-N-(1-(4-fluorophenyl)ethyl)quinazolin-4-amine] | 10 to 80% | ++++ (value is greater than 60 minutes) | 80 to 90% | ++++ (value is greater than 60 minutes) | > 0.2 µM | + (value is greater than 200 nM) | 10 to 80% | 0.002 to 0.02 µM | 
CS(=O)(=O)Nc1cc(-c2ccc3ncc(C#N)c(NC4(c5ccccc5)CC4)c3c2)cnc1Cl [Compound 106, N-[2-chloro-5-[3-cyano-4-[(1-phenylcyclopropyl)amino]-6-quinolyl]-3-pyridyl]methanesulfonamide] | > 90% | +++ (value is greater than 30 minutes and less than or equal to 60 minutes) | 10 to 80% | ++++ (value is greater than 60 minutes) |  |  |  |  | 
C[C@H](Nc1c(C#N)cnc2ccc(-c3cnc(Cl)c(NS(C)(=O)=O)c3)cc12)c1ccc(F)cc1 [Compound 97S, N-(2-chloro-5-(3-cyano-4-((1S-(4-fluorophenyl)ethyl)amino)quinolin-6-yl)pyridin-3-yl)methanesulfonamide] | > 90% | ++++ (value is greater than 60 minutes) | < 10% | ++++ (value is greater than 60 minutes) | < 0.002 µM |  | > 90% | > 0.2 µM | < 0.002 µM
C[C@H](Nc1ncnc2ccc(-c3cnc(Cl)c(NS(C)(=O)=O)c3)cc12)c1ccc(F)cc1 [Compound 111S, N-[2-chloro-5-[4-[[(1S)-1-(4-fluorophenyl)ethyl]amino]quinazolin-6-yl]-3-pyridyl]methanesulfonamide] | > 90% | ++++ (value is greater than 60 minutes) | < 10% | ++++ (value is greater than 60 minutes) | < 0.002 µM | ++++ (value is 2 nM or less) | > 90% | > 0.2 µM | 
C[C@@H](Nc1c(C#N)cnc2ccc(-c3cnc(Cl)c(NS(C)(=O)=O)c3)cc12)c1ccccc1 [Compound 48R, N-(2-chloro-5-(3-cyano-4-((1R-phenylethyl)amino)quinolin-6-yl)pyridin-3-yl)methanesulfonamide] | > 90% | ++++ (value is greater than 60 minutes) | > 90% | +++ (value is greater than 30 minutes and less than or equal to 60 minutes) |  |  | > 90% | 0.002 to 0.02 µM | 
CC(Nc1c(C#N)cnc2ccc(-c3cnc(Cl)c(NS(C)(=O)=O)c3)cc12)c1ccccc1 (stereo not drawn) [Compound 48, N-[2-chloro-5-[3-cyano-4-(1-phenylethylamino)-6-quinolyl]-3-pyridyl]methanesulfonamide] | > 90% | ++++ (value is greater than 60 minutes) | 80 to 90% | ++++ (value is greater than 60 minutes) |  |  | > 90% |  | 
